pIC50: −log10 of the molar value.
Assays:
Estrogen receptor = biological target: T1, Estrogen receptor (Homo sapiens, UniProt P03372); assay: Inhibition of ERalpha (unknown origin)
T1 sequence (P03372 whole entry): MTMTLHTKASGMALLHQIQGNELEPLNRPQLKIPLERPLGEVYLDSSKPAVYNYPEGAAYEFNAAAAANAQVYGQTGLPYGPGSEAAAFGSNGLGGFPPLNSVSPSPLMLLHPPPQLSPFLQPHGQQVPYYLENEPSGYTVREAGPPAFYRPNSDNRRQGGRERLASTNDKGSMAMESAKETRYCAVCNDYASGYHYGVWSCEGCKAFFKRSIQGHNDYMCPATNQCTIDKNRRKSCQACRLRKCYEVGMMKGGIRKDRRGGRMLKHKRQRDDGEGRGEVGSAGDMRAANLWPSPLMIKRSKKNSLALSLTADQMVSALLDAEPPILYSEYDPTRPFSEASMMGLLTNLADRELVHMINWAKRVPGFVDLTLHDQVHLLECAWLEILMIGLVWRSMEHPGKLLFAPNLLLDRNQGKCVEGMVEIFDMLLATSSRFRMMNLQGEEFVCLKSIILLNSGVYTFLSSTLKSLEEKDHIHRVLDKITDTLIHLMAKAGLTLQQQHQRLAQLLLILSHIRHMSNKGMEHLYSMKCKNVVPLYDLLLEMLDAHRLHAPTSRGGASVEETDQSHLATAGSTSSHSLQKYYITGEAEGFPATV

[1] = biological target: RAF proto-oncogene serine/threonine-protein kinase (Homo sapiens, UniProt P04049); assay: Inhibition of C-RAF (unknown origin)
HL-60 = assay: cells; details: Homo sapiens, HL-60, 72 h
Description: Antiproliferative activity against human HL-60 cells assessed as reduction in cell growth incubated for 72 hrs by MTT assay

MIA PaCa-2 = assay: cells; details: Homo sapiens, MIA PaCa-2, 48 h
Description: Antiproliferative activity against human MIA PaCa-2 cells assessed as reduction in cell growth measured after 48 hrs by MTT assay

[2] = biological target: T2, 14-3-3 protein beta/alpha (Homo sapiens, UniProt P31946)
T2 sequence (P31946 whole entry): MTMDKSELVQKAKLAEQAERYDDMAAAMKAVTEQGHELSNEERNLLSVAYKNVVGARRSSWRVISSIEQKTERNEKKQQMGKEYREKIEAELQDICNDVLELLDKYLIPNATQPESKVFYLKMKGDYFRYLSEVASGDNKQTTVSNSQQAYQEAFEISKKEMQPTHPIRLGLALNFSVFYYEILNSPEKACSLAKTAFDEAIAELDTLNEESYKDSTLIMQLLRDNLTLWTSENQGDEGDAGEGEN

[3] = biological target: T2, 14-3-3 protein beta/alpha; remark: listed apart in the source

RAF proto-oncogene serine/threonine-protein kinase, sequence (P04049 whole entry): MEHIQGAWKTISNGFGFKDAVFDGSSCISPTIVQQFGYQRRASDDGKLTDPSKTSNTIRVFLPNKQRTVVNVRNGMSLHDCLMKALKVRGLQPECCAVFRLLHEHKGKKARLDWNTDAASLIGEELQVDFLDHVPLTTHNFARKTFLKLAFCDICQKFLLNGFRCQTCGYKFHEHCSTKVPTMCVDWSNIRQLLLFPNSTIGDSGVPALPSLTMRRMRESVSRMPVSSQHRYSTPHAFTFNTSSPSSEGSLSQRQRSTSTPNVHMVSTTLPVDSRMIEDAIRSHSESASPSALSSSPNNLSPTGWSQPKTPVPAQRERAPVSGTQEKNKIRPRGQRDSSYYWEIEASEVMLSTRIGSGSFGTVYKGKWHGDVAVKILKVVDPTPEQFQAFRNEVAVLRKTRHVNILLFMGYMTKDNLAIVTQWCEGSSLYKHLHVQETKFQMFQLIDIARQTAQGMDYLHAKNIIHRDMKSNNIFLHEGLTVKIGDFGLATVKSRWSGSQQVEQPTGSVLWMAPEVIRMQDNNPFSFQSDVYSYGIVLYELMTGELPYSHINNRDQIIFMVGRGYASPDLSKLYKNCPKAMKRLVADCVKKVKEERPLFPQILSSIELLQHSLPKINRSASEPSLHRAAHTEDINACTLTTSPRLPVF

O=C(C1=C(O)C(=O)N(c2ccc(O)c(C(=O)O)c2)C1c1ccc([N+](=O)[O-])cc1)c1ccccc1 (stereo not drawn) gave a pIC50 (Estrogen receptor) of 4.10.
CC(C)CC(NC(=O)[C@H](O)[C@H](N)Cc1ccccc1)C(=O)O (stereo partly drawn) was tested, and the pIC50 (Estrogen receptor) was 5.74.
With CN(C)CCSSCCC(=O)N1CCC(O)(c2cccc(C(F)(F)F)c2)CC1 the pIC50 [1] was 4.11.
With CN(C)CCSSCCNC(=O)C1CCN(C(=O)C(C)(C)Oc2ccc(Cl)cc2)CC1 the pIC50 (Estrogen receptor) was 4.72 and the pIC50 [1] was 4.09.
CN(C)CCSSCCNC(=O)C1CCCN(C(=O)c2ccc(Oc3ccccc3)cc2)C1 (stereo not drawn) showed a pIC50 (Estrogen receptor) of 3.37 and a pIC50 [1] of 3.37.
With COc1ccc2cc([C@H](C)C(=O)N3CCC(C(=O)NCCSSCCN(C)C)CC3)ccc2c1 the pIC50 [1] was 3.61.
Compound COC[C@H]1CC[C@@H]2/C1=C\[C@@]1(C)CCC(C(C)C)=C1C(O[C@@H]1O[C@@H](CNCc3ccccc3)[C@H](O)[C@@H](O)[C@@H]1O)[C@H](O)[C@@H]2C (stereo partly drawn) has a pIC50 (HL-60) of 6.60.
With COC[C@H]1CC[C@@H]2/C1=C\[C@@]1(C)CCC(C(C)C)=C1C(O[C@@H]1O[C@H]3COC(C)(C)O[C@@H]3[C@@H](O)[C@@H]1O)[C@H](O)[C@@H]2C (stereo partly drawn) the pIC50 (MIA PaCa-2) was 4.74.
N=C(N)c1cc(-c2cccc(NC(=O)C3(Oc4ccc(Cl)cc4)CCC(N)CC3)c2)cs1 (stereo not drawn) gave a pIC50 [2] of 3.82.
Work on O=Cc1ccc(-n2ccnc2-c2ccc(F)cc2F)cc1Br yielded a pIC50 [3] of 3.60.
NCCCNCCS [WR-1065] showed a pIC50 (Estrogen receptor) of 5.55.

From ChEMBL document CHEMBL6121064, “Recent Developments in 14-3-3 Stabilizers for Regulating Protein-Protein Interactions: An Update” (J Med Chem, 2025)
